Literature values in patent US20220024925A1, “Deuterium-Substituted 7-Substituted-2-(Benzylamino)-6-Ozopurine Compounds and Uses Thereof” (Acurx Pharmaceuticals LLC, priority 2020, published 2022).

How the values were obtained:
[1] = test system: other, intestinal Gram-positive anaerobes; details: stated in words only; see Wright et al., U.S. Pat. No. 8,796,292
C. diff = details: stated in words only; see Wright et al., U.S. Pat. No. 8,796,292

O=c1[nH]c(NCc2ccc(Cl)c(Cl)c2)nc2ncn(CCN3CCOCC3)c12 [Compound I-1, 2-((3,4-dichlorobenzyl)amino)-7-(2-morpholinoethyl)-1,7-dihydro-6H-purin-6-one]
activity against other, intestinal Gram-positive anaerobes [1]: weak activity | activity against the growth of the intestinal anaerobe C. diff (C. diff): potent activity
